We go through three compounds from US20050209336A1, “EP2 receptor agonists” (priority 2003, published 2005).

pEC50: −log10 of the molar value. Like-named read-outs stand apart in the source and are kept apart here.

In assay [1] the target is T1, human EP4 receptor (Homo sapiens, UniProt P35408).
T1 construct: expressed in transfected cells
The experiment in a line: Radioligand ([3H]PGE2) competition displacement binding, human EP4 receptor membranes. To be noted: [3H]PGE2 displacement, read-out: pKi EP4 (converted). How it is done:
Membranes were prepared from cells stably transfected with human EP receptor cDNA. In brief, cells were cultured to confluency, scraped from culture flasks, and centrifuged (800 g, 8 minutes, 4° C.). Cells were twice washed in ice cold homogenisation buffer containing 10 mMTris-HCl, 1 mM EDTA.2Na, 250 mM sucrose, 1 mM PMSF, 0.3 mM indomethacin, pH 7.4, homogenised and re-centrifuged as before. The supernatant was stored on ice and pellets re-homogenised and re-spun. Supernatants were pooled and centrifuged at 40000 g, 10 minutes, 4° C. Resultant membrane pellets were stored at −80° C. until use.
For assay, membranes expressing human EP4, EP3, EP2 or EP1 receptors were incubated in Millipore (MHVBN45) plates containing assay buffer, radiolabelled [^3H]PGE2 and 0.1 to 10 000 nM concentrations of compounds. Incubations were performed at suitable temperatures and for suitable times to allow equilibrium to be reached. Non-specific binding was determined in the presence of 10 uM PGE2. Bound and free radiolabel was separated by vacuum manifold filtration using appropriate wash buffers, and bound radiolabel was determined by scintillation counting. Constituents of each of the buffers are included in table 4 below.
The affinity or pKi of each compound for each receptor was calculated from the concentration causing 50% radioligand displacement (IC50) using the Cheng-Prusoff equation: [formula]
This approach follows that set out in Kenakin, T. P., Pharmacologic analysis of drug receptor interaction. Raven Press, New York, 2nd edition.

For assay [2], the system named is human myometrial smooth muscle. Briefly: Human myometrial activity: inhibition of electrical field stimulation (EFS) induced contractions. In kind it is cell-based. Conditions: for maximum inhibitory effect: inhibition of EFS-induced contractions / pEC50: human myometrium strips; for effect on electrically-induced (EFS-evoked) contractions: human myometrium, 10^-6 to 10^-4 M (FIG. 6), 1x10^-7 to 1x10^-4 M; for pEC50: inhibition of EFS-evoked response. The method, then: The following describes an in vitro functional assay, using human myometrial smooth muscle, to determine the affinity of the test compounds at the EP2 receptor in human tissues.
Sections of human myometrium were prepared from samples of surgically removed uterus longitudinal myometrial muscle strips (2 mm wide by 10 mm long) were then cut and suspended between stainless steel hooks in organ chambers containing oxygenated (95% O2/5% CO2) Krebs solution at 37° C. The composition of the Krebs solution was as follows: NaCl (118.2 mM), KCl (4.69 mM), MgSO4.7H2O (1.18 mM), KH2PO4 (1.19 mM), glucose (11.1 mM), NaHCO3 (25.0 mM), CaCl2.6H2O (2.5 mM), indomethacin 3×10^−6M.
Tissues were placed under a tension equivalent to 25 mN and left overnight at room temperature. The following day the tissues were maintained at 37° C., washed and placed under a tension of 15 mN then allowed to equilibrate for a period of at least 30 minutes. Responses were recorded using isometric transducers coupled to an Apple Macintosh computer via a MacLab interface. After 60 minutes, the muscle sections of the human myometrium were stimulated electrically (15 ms pulse width, for 10 s every 100 s at 15V and 0.5-40 Hz) using parallel platinum wire electrodes and a Multistim D330 pulse stimulator. Upon electrical stimulation, the strips of human myometrial smooth muscle responded with a rapid contraction. Once the response to electrical stimulation had stabilised (stimulated responses differed by no more than 10%), the strips were exposed to increasing concentrations of test compounds (1×10^−7 to 1×10^−4M, incubated for at least 15 minutes at each concentration). At the end of the experiment, application of sodium nitroprusside (SNP, a nitric oxide donor that causes smooth muscle relaxation) (1×10^−4M) was used to produce a standard relaxatory response. To determine the affinity of the compounds, the concentration of test compound required to produce half-maximal effects (EC50) was calculated, as was the maximum response (calculated as a percentage of the standard response produced with SNP).

Assay [3] has as its system IL-2 production by OKT3 activated T cells. Briefly: Lymphocyte assay: IL-2 production by anti-CD3 (OKT3) stimulated T cells. To be noted: Homo sapiens, T-cell, 24 h, inhibition of IL-2 production; for pEC50: read-out: Mean EC50; for EC50: log scale, read-out: Mean Log (EC50) (converted). In kind it is cell-based, human. The source says:
(§1) Lymphocytes are mononuclear leukocytes, which participate in specific immune responses to foreign antigens and in the manifestation of auto-immune diseases. T lymphocytes produce IL-2, a key factor for lymphocyte activation and proliferation, in response to antigen stimulation via the CD3-T cell receptor complex and the pathway involved in this response is the NF-AT. […] A lymphocyte assay was designed to model this response and to determine the effect of test compound on IL-2 production by anti-CD3-stimulated T cells isolated from peripheral blood. This assay uses a sub-optimal dose of an anti-CD3 monoclonal antibody (OKT3, 25 ng/ml) immobilised to a 96-well plate to stimulate a T cell response. The level of IL-2 released into the cell culture supernatants was quantified using a standard sandwich ELISA. Similarly, other cytokines such as TNFα and IFN-γ can also be measured in the same assay.
(§2) Human peripheral blood mononuclear cells from healthy volunteers were isolated from whole blood by Ficoll-Hypaque density centrifugation and adherence to plastic. The non-adherent lymphocyte fraction was used to set up the lymphocyte assay and the adherent monocytes were then recovered by scraping and subsequently used in the monocyte assay.
(§3) Lymphocytes were then seeded to a 96-well plate pre-coated with anti-CD3 monoclonal antibody (OKT3) at 25 ng/ml and immediately, the test compounds (Peak 1, mixture 1 acid; Peak 1, mixture 2 acid; AH-13205 racemate; PGE2) in appropriate dilutions were added to corresponding wells according to the experimental design. The plate was incubated for 24 hours at 37° C. with 5% CO2 in air and supernatants were recovered for ELISA analysis at the end of incubation period. The levels of IFN-γ was assessed by using the ProteoPlex 16 well human cytokine array assay kit according to the manufacturer's instruction.

For assay [4], the system named is interferon gamma release by lymphocytes. Briefly: Lymphocyte assay: interferon gamma release. Format: cell-based, human. To be noted: two donors (FIG. 11).
Source text: as §1, with “assay. […]” for “assay.”
Lymphocytes were then seeded to a 96-well plate pre-coated with anti-CD3 monoclonal antibody (OKT3) at 25 ng/ml and immediately, the test compounds (Peak 1, mixture 1 acid; Peak 1, mixture 2 acid; AH-13205 racemate; PGE2) in appropriate dilutions were added to corresponding wells according to the experimental design. […] The levels of IFN-γ was assessed by using the ProteoPlex 16 well human cytokine array assay kit according to the manufacturer's instruction.

Assay [5] deals with TNFα production by lymphocytes. The experiment in a line: Lymphocyte assay: TNFα production. In kind it is cell-based, human. Conditions: Homo sapiens, Lymphocyte, inhibition of TNFα production by lymphocytes, mean of three donors.
Source text: as §1, §2, §3

In assay [6] the test system is lymphocyte proliferation. The experiment in a line: Lymphocyte proliferation driven by immobilised anti-CD3 antibody. Format: cell-based, human. To be noted: Homo sapiens, inhibition of lymphocyte proliferation, 72 h, mean of three donors.
Source text: as §1, §2
For the measurement of lymphocyte proliferation driven by immobilised anti-CD3 monoclonal antibody, the assay was set up in the same way as for the measurement of IL-2 release, except that the cells were cultured for 72 hours in the presence or absence of test compounds. Four hours prior to the termination of the proliferation assay, a novel tetrazolium compound solution supplied by Promega in the format of Cell Proliferation Assay Kit was added to individual wells according to the manufacturer's instruction. The plate was then placed back in the incubator for the remaining 4 hours and the […] reaction was measured using a spectrophotometer at an absorbent wavelength of 490 nm (SpectraMax, Molecular Devices) according to the manufacturer's instruction.

Where [7] appears, read: mean of four donors (FIG. 9, table 7).
The mark [8] stands for this setting: mean of three to five donors (FIG. 10, table 8).
[9] abbreviates: log scale, read-out: Mean Log (EC50) (converted).

T1 sequence (P35408 whole entry): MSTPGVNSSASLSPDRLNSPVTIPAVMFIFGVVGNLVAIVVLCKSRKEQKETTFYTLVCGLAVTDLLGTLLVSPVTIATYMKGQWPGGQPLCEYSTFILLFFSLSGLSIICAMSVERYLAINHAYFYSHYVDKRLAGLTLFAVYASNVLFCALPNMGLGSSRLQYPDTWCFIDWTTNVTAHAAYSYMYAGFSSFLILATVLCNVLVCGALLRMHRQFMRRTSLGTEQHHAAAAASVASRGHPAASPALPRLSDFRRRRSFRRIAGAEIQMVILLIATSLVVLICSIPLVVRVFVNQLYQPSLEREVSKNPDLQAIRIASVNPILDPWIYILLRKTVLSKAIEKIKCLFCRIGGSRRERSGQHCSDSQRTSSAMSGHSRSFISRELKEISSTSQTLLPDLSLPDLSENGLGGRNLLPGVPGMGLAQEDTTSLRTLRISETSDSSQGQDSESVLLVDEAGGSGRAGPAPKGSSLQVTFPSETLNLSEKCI

In the case of `CCCCCC(O)c1ccc(C2CCC(=O)C2CCCCCCC(=O)O)cc1` (racemic) [AH13205, (±)-trans-2-[4-(1-hydroxyhexyl)phenyl]-5-oxo-cyclopentaneheptanoic acid, reference compound], the Ki in assay [1] was 25100 nM. In addition, in assay [2], the “maximum inhibitory effect: inhibition of EFS-induced contractions” value (from here on “maximum inhibitory effect: inhibition”) is recorded as 49±5%; the “effect on electrically-induced (EFS-evoked) contractions” value (from here on “effect on electrically-induced”) is “concentration-dependent inhibition”; the pEC50 (commonly −log10 of the EC50, conventionally taken in molar units) was 5.30. In addition, the “effect on electrically-induced” value in assay [2] (listed as AH-13205) was “inhibit electrically-induced contractions”. Further, in assay [3] (setting [7]), the negative-log EC50 (pEC50) is 5.55 and the concentration giving a half-maximal response (EC50) (commonly the concentration that produces a half-maximal response) was 2820 nM.

In the case of `CCCCC[C@H](O)c1ccc([C@H]2CCC(=O)[C@@H]2CCCCCCC(=O)O)cc1` (single isomer, unassigned) [Peak 1, Mixture 1 acid], in assay [1], the Ki is 10000 nM. Further, the “maximum inhibitory effect: inhibition” value in assay [2] amounted to 56±5%. Also, in assay [2], the “effect on electrically-induced” value is on record as “concentration-dependent inhibition”. For the same compound, the pEC50 was 5.90 in assay [2]; 6.01 in assay [3] (setting [7]); 5.88 in assay [3] (setting [8]); 5.63 in assay [5] (read-out: Mean EC50); 5.00 in assay [6] (read-out: Mean EC50). For the same compound, the concentration giving a half-maximal response (EC50) was 986 nM in assay [3] (setting [7]), 1320 nM in assay [3] (setting [8]), 2330 nM in assay [5] (setting [9]) and 10000 nM in assay [6] (setting [9]). In addition, the interferon gamma release result in assay [4] is recorded as “concentration-dependently inhibit interferon gamma release”.

With `CCCCC[C@@H](O)c1ccc([C@H]2CCC(=O)[C@@H]2CCCCCCC(=O)O)cc1` (single isomer, unassigned) [Peak 1, Mixture 2 acid], the Ki in assay [1] is 7940 nM. In addition, in assay [2], the “maximum inhibitory effect: inhibition” value came out at 57±2%, the “effect on electrically-induced” value is given as “concentration-dependent inhibition” and the negative logarithm of the EC50 (pEC50) is 5.30.
